Assay results as given in paper PMC6600542 (Molecules, 2019).
Values joined by “and” are separate entries in the source; they are usually repeats but may differ in a detail not shown here. Equal values may be shown once.

What was measured:
[1] = tested on: human plasma deficient of FIX; assay: APTT clotting assay, FIX-deficient plasma; type: biochemical
Procedure: For the PT assay, thromboplastin-D was reconstituted according to the manufacturer’s directions and warmed to 37 °C. […] After incubation for 4 min at 37 °C, clotting was initiated by adding 100 μL of prewarmed 25 mM CaCl2 and the time to clotting was noted. […] To determine the in vitro effect on the APTT of deficient human plasmas, the APTT assay was repeated, using human plasmas deficient of factor VII (FVII), factor IX (FIX), FXI, or factor XII (FXII). […] The positive control used in APTT and PT assays was rivaroxaban, a clinically used FXa inhibitor. Under the conditions reported, rivaroxaban doubled the APTT and PT at concentrations of 0.123 ± 0.003 µM and 0.193 ± 0.043 µM, respectively.

human plasmin [2] = molecular target: T1, human plasmin (Homo sapiens, UniProt P00747); assay: In vitro plasmin-mediated clot lysis (fibrinolysis) assay; type: biochemical; settings: rate of clot lysis over 5–100 min, pH 7.4, 25 °C
T1 sequence (P00747 581-810 limits assumed): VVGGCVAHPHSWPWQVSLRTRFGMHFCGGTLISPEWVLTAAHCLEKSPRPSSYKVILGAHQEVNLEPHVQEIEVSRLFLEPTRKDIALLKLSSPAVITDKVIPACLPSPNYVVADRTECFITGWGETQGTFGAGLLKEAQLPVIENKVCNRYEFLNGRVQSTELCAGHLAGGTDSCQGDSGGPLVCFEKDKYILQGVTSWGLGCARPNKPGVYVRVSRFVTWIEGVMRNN
T1 sequence (P00747 97-580 partner limits assumed): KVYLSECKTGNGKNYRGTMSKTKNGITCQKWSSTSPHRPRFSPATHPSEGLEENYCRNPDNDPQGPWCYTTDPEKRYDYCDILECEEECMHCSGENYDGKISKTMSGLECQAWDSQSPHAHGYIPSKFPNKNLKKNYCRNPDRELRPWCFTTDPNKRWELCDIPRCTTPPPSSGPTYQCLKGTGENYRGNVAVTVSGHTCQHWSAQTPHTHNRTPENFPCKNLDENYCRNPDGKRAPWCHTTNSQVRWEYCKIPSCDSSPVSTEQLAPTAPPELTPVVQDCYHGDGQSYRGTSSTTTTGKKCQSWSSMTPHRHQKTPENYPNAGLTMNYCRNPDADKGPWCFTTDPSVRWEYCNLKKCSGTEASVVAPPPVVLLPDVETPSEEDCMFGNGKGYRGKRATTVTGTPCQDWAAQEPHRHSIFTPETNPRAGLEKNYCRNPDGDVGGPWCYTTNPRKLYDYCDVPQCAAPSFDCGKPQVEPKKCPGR
Procedure: The method followed here was similar to that reported earlier. This in vitro experiment was conducted in 96-well platform in pH 7.4 buffer at 25 °C. The clot was generated by the addition of 80 µL of a solution of human thrombin (2.5 µg/mL) in 20 mM TrisHCl buffer containing 10 mM CaCl2 to 60 µL of a solution of fibrinogen (10 mg/mL) and FXIIIa (2 µg/mL) in 20 mM TrisHCl buffer containing 10 mM CaCl2. The resulting clot was stabilized for 15 min at 25 °C. The absorbance was then measured at 405 nm and was ~0.98 across all wells. […] Finally, 5 µL of human plasmin (stock of 1.6 µM) in 20 mM TrisHCl buffer of pH 7.4 containing 2.5 mM CaCl2 and 100 mM NaCl was added to each well and the A405 of each well was recorded over more than 340 min at various time intervals. […] (1) Y=Y0+YM−Y0/1+10^(log[I]0−logIC50)(HS)

human FXa [3] = molecular target: T2, human FXa (Homo sapiens, UniProt P00742); assay: FXa chromogenic substrate hydrolysis assay; type: biochemical; settings: pH 7.4, 37 °C
T2 sequence (P00742 235-488 limits assumed): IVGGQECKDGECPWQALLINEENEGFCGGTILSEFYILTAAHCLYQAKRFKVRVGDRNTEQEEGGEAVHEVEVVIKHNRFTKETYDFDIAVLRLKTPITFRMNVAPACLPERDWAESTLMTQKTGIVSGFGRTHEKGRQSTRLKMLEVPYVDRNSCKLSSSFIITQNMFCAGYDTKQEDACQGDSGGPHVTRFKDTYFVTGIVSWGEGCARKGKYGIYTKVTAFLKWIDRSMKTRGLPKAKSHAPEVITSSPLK
T2 sequence (P00742 41-179 partner limits assumed): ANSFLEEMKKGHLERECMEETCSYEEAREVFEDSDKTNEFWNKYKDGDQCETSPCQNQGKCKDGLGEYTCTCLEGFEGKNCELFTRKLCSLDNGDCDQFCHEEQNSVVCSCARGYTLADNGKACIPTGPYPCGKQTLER
Procedure: Direct inhibition of human FXa and α-thrombin of the common coagulation pathway and human plasmin of the fibrinolysis pathway were measured using the corresponding chromogenic substrate hydrolysis assays at 37 °C and pH 7.4, as reported earlier using the 96-microplate platform. […] After 10 min incubation, 5 µL Spectrozyme FXa (5 mM stock conc.) was rapidly added and the residual activity of FXa was measured from the initial rate of increase in absorbance at 405 nm. […] The concentration vs effect curve was constructed using logistic Equation (1) from which the potency (IC50) and efficacy (ΔY) of inhibition were also obtained.

human FXIIIa = molecular target: T3, human FXIIIa (Homo sapiens, UniProt P00488); assay: FXIIIa fluorescence-based transglutamination assay; type: biochemical; settings: pH 7.4, 37 °C
T3 construct: followed by the addition of 2 μL human FXIIIa (0.3 μM); purchased Haematologic Technologies, Inc
T3 sequence (P00488 39-732 limits assumed): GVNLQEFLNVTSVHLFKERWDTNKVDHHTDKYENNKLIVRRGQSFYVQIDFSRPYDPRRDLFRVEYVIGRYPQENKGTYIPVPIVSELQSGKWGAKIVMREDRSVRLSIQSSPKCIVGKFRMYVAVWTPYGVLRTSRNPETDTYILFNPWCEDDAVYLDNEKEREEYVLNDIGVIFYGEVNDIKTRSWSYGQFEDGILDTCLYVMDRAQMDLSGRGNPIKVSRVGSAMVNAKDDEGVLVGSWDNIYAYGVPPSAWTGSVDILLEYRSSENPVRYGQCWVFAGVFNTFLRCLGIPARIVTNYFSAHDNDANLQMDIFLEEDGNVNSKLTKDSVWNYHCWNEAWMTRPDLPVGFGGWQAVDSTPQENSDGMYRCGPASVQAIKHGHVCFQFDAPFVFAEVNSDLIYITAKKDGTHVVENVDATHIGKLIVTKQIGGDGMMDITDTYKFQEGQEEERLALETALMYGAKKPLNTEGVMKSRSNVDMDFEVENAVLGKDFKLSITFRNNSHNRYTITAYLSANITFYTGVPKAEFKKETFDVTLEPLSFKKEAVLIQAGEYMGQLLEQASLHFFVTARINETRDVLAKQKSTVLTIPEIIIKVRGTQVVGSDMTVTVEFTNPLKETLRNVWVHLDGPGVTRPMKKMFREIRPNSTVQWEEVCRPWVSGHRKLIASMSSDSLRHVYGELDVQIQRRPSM
Procedure: Direct inhibition of the human coagulation transglutaminase FXIIIa was also studied using a fluorescence-based transglutamination assay as reported in the literature.
The activity of FXIIIa was evaluated by the addition of 5 μL dansylcadaverine (2 mM) and measuring the initial rate of increase in fluorescence emission (λEx. = 360 nm and λEm. = 490 nm). In all assays, the dose dependence of the fractional residual enzyme activity, if any, was analyzed using Equation (1) above to obtain the apparent concentration of the test molecule required to reduce the enzyme activity to 50% of its initial value. All assays were performed three times.

human FXa [4] = molecular target: T2, human FXa; assay: Michaelis-Menten kinetics of Spectrozyme FXa hydrolysis by FXa; type: biochemical; settings: for Km / VMAX of Spectrozyme FXa hydrolysis: pH 7.4, 37 °C
Procedure: (§1) The initial rate of Spectrozyme FXa hydrolysis by human FXa (87 nM) or that of Spectrozyme PL hydrolysis by human plasmin (120 nM) was monitored from the linear increase in absorbance at 405 nm corresponding to less than 10% consumption of the substrate. […] The data were fitted by Michaelis-Menten Equation (2) to determine KM (substrate affinity to the enzyme) and VMAX (maximum velocity of enzyme reaction). (2) Vi=VMAX×[S]/KM+[S]

human plasmin [5] = molecular target: T1, human plasmin; assay: Michaelis-Menten kinetics of Spectrozyme PL hydrolysis by plasmin; type: biochemical; settings: for VMAX of Spectrozyme PL hydrolysis: pH 7.4, 37 °C
Procedure: as §1

[6] = design: method as in PMID 3491164, PMID 3680992, PMID 1984463; settings: patients; read-out: means of plasma CMAX; cited from earlier work

**Q.** Which “APTTEC2×, concentration to double clotting time” value [1] does the source give for `N=C(N)c1ccc(OCCCCCOc2ccc(C(=N)N)cc2)cc1` [pentamidine isethionate, 4,4′-(pentane-1,5-diylbis(oxy))-dibenzimidamide] here?
**A.** 26.32 ± 3.52 µm

**Q.** What about the “HS (Hill slope) of clot lysis inhibition” value (human plasmin [2]) of the same compound?
**A.** 1.2 ± 0.7

**Q.** And the “efficacy (ΔY) of clot lysis inhibition” value (human plasmin [2])?
**A.** ~ 58%

**Q.** What about the IC50 (human plasmin [2]; read-out: IC50 of fibrinolysis (clot lysis) inhibition) of the same compound?
**A.** ~3.6 µM and 3.6 µM

**Q.** What about the HS (human FXa [3]) of the same compound?
**A.** 0.97 ± 0.07

**Q.** What about the IC50 (human FXa [3]) of the same compound?
**A.** ~10 µM and 10.4 µM

**Q.** And the “∆Y (efficacy)” value (human FXa [3])?
**A.** 101.6 ± 2.9%

**Q.** And the “∆Y (efficacy)” value (human FXa [3]; listed as pentamidine)?
**A.** ~ 100%

**Q.** And the IC50 (human FXIIIa)?
**A.** > 50 µM

**Q.** And the Km (human FXa [4]; 5 µM pentamidine isethionate)?
**A.** 267 ± 21.2 µM

**Q.** And the “VMAX of Spectrozyme FXa hydrolysis” value (human FXa [4]; 5 µM pentamidine isethionate)?
**A.** 114.3 ± 4.7 mAU/min

**Q.** And the Km (human FXa [4]; 10 µM pentamidine isethionate)?
**A.** 410 ± 18.2 µM

**Q.** And the “VMAX of Spectrozyme FXa hydrolysis” value (human FXa [4]; 10 µM pentamidine isethionate)?
**A.** 124.2 ± 3.3 mAU/min

**Q.** And the Km (human FXa [4]; 20 µM pentamidine isethionate)?
**A.** 364 ± 36.6 µM

**Q.** What about the “VMAX of Spectrozyme FXa hydrolysis” value (human FXa [4]; 20 µM pentamidine isethionate) of the same compound?
**A.** 63.1 ± 3.6 mAU/min

**Q.** And the Km (human FXa [4]; 50 µM pentamidine isethionate)?
**A.** 690 ± 63.1 µM

**Q.** And the “VMAX of Spectrozyme FXa hydrolysis” value (human FXa [4]; 50 µM pentamidine isethionate)?
**A.** 60.3 ± 3.8 mAU/min

**Q.** And the “decrease of VMAX of Spectrozyme FXa hydrolysis” value (human FXa [4]; inhibitor 50 μM vs absence)?
**A.** ~ 2.8 fold

**Q.** And the “increase of KM for Spectrozyme FXa” value (human FXa [4]; inhibitor 50 μM vs absence)?
**A.** ~ 2.3 fold

**Q.** What about the “VMAX of Spectrozyme PL hydrolysis” value (human plasmin [5]; 10 µM pentamidine isethionate) of the same compound?
**A.** 78.7 ± 2.0 mAU/min

**Q.** And the “VMAX of Spectrozyme PL hydrolysis” value (human plasmin [5]; 20 µM pentamidine isethionate)?
**A.** 88.4 ± 1.0 mAU/min

**Q.** What about the “VMAX of Spectrozyme PL hydrolysis” value (human plasmin [5]; 50 µM pentamidine isethionate) of the same compound?
**A.** 92.9 ± 3.2 mAU/min

**Q.** And the “VMAX of Spectrozyme PL hydrolysis” value (human plasmin [5]; 100 µM pentamidine isethionate)?
**A.** 90.9 ± 6.5 mAU/min

**Q.** And the “type of inhibition of plasmin” value (human plasmin [5]; Michaelis-Menten kinetics)?
**A.** competitively inhibits

**Q.** And the “increase of KM for Spectrozyme PL” value (human plasmin [5]; inhibitor 100 μM vs absence)?
**A.** ~ 13.9 fold

**Q.** What about the Cmax [6] of the same compound?
**A.** ≤ 1000 nM
